The target in data set [1] is histone deacetylase (HeLa nuclear extracts). As to the kind of experiment: In vitro assay for inhibition of histone deacetylase with fluorescent-labelled substrate (Fluor de Lys). It counts as biochemical. The source says:
The in vitro assay for inhibition of histone deacetylase (see example C.1) measures the inhibition of HDAC enzymatic activity obtained with the compounds of formula (I).
The HDAC Fluorescent Activity Assay/Drug Discovery Kit of Biomol (cat. No: AK-500-0001) was used. The HDAC Fluorescent Activity Assay is based on the Fluor de Lys (Fluorogenic Histone deAcetylase Lysyl) substrate and developer combination. The Fluor de Lys substrate, comprises an acetylated lysine side chain. Deacetylation of the substrate sensitizes the substrate so that, in the second step, treatment with the Fluor de Lys developer produces a fluorophore.
HeLa nuclear extracts (supplier: Biomol) were incubated at 60 μg/ml with 75 μM of substrate. The Fluor de Lys substrate was added in a buffer containing 25 mM Tris, 137 mM NaCl, 2.7 mM KCl and 1 mM MgCl2.6H2O at pH 7.4. After 30 min, 1 volume of the developer was added. The fluorophore was excited with 355 nm light and the emitted light (450 nm) was be detected on a fluorometric plate reader.
For each experiment, controls (containing HeLa nuclear extract and buffer), a blank incubation (containing buffer but no HeLa nuclear extract) and samples (containing compound dissolved in DMSO and further diluted in buffer and HeLa nuclear extract) were run in parallel. In first instance, compounds were tested at a concentration of 10^−5M. […] All sample were tested 4 times. In each test the blank value was subtracted from both the control and the sample values. The control sample represented 100% of substrate deactylation. For each sample the fluorescence was expressed as a percentage of the mean value of the controls. […] Herein the effects of test compounds are expressed as pIC50 (the negative log value of the IC50-value) (see Table F-2).

Data set [2] relates to A2780 ovarian carcinoma cells. Description: Antiproliferative activity on A2780 cells (MTT). It counts as cell-based. Particulars: Homo sapiens, 96 h, four days of incubation, read-out: Cellular activity pIC50 C.2 (converted). On the procedure: Cellular activity of the compounds of formula (I) was determined on A2780 tumour cells using a colorimetric assay for cell toxicity or survival (Mosmann Tim, Journal of Immunological Methods 65: 55-63, 1983)(see example C.2).
All compounds tested were dissolved in DMSO and further dilutions were made in culture medium. Final DMSO concentrations never exceeded 0.1% (v/v) in cell proliferation assays. Controls contained A2780 cells and DMSO without compound and blanks contained DMSO but no cells. MTT was dissolved at 5 mg/ml in PBS. A glycine buffer comprised of 0.1 M glycine and 0.1 M NaCl buffered to pH 10.5 with NaOH (1 N) was prepared (all reagents were from Merck).
The human A2780 ovarian carcinoma cells (a kind gift from Dr. T. C. Hamilton [Fox Chase Cancer Centre, Pennsylvania, USA]) were cultured in RPMI 1640 medium supplemented with 2 mM L-glutamine, 50 μg/ml gentamicin and 10% fetal calf serum. Cells were routinely kept as monolayer cultures at 37° C. in a humidified 5% CO2 atmosphere. Cells were passaged once a week using a trypsin/EDTA solution at a split ratio of 1:40. All media and supplements were obtained from Life Technologies. Cells were free of mycoplasma contamination as determined using the Gen-Probe Mycoplasma Tissue Culture kit (supplier: BioMérieux).
Cells were seeded in NUNC™ 96-well culture plates (Supplier: Life Technologies) and allowed to adhere to the plastic overnight. Densities used for plating were 1500 cells per well in a total volume of 200 μl medium. After cell adhesion to the plates, medium was changed and drugs and/or solvents were added to a final volume of 200 μl. Following four days of incubation, medium was replaced by 200 μl fresh medium and cell density and viability was assessed using an MTT-based assay. To each well, 25 μl MTT solution was added and the cells were further incubated for 2 hours at 37° C. The medium was then carefully aspirated and the blue MTT-formazan product was solubilized by addition of 25 μl glycine buffer followed by 100 μl of DMSO. […] Within an experiment, the results for each experimental condition are the mean of 3 replicate wells. For initial screening purposes, compounds were tested at a single fixed concentration of 10^−6 M. For active compounds, the experiments were repeated to establish full concentration-response curves. For each experiment, controls (containing no drug) and a blank incubation (containing no cells or drugs) were run in parallel. The blank value was subtracted from all control and sample values. For each sample, the mean value for cell growth (in absorbance units) was expressed as a percentage of the mean value for cell growth of the control. […] Herein the effects of test compounds are expressed as pIC50 (the negative log value of the IC50-value)(see Table F-2).

As a reminder, the melting point is the temperature, or range, at which the solid turns liquid. Take `Cn1c(CNCC2CCN(c3ncc(C(=O)NO)cn3)CC2)nc2ccccc21` [Compound 3]: the melting point was found to be 209 °C. For the same compound, in data set [1], the “Enzymatic activity pIC50 C.1” value came out at 8.1. For the same compound, the IC50 in data set [2] is 100 nM.
